Consider two compounds from publication PMC5376172, “Identification and use of an alkane transporter plug-in for applications in biocatalysis and whole-cell biosensing of alkanes” (Scientific Reports, 2014).

Each structure is given as a SMILES string.

For experiment [1], the target named is T1, alkane hydroxylase complex (AlkB, AlkG, AlkT) (Ectopseudomonas oleovorans, UniProt P12691).
T1 construct: integral membrane AlkB with electron transfer partners, co-expressed from pSTBFG(L) in whole E. coli cells; alkF also on plasmid; with Rubredoxin-2; Rubredoxin-NAD(+) reductase
T1 sequence (P12691 1-401): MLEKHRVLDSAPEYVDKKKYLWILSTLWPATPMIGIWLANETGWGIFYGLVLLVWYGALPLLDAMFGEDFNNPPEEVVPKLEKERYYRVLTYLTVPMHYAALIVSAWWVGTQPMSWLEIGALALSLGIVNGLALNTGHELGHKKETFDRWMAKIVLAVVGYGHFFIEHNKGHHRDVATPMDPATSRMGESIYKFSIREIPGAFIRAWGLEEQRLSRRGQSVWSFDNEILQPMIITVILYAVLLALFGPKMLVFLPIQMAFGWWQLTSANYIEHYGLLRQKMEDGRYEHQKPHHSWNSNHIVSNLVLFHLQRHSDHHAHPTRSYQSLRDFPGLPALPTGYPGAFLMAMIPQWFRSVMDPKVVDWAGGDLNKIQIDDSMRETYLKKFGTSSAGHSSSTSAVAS
T1 sequence (P00272 2-173 partner): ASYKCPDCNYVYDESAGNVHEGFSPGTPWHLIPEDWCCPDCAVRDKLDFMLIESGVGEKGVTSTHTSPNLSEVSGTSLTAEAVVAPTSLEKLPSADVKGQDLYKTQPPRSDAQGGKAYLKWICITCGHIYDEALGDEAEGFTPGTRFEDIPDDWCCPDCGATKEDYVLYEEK
The experiment in a line: whole-cell bio-oxidation, GC-FID of products. Type of experiment: cell-based. As to conditions: E. coli DH1 / HB101 whole cells; DCPK inducer.

The next experiment has as its target T2, AlkL (Ectopseudomonas oleovorans, UniProt Q00595).
T2 construct: full-length, untagged, from pSTBFGL (palkB promoter) in E. coli DH1 / HB101 with AlkBFGT
T2 sequence (Q00595 28-230): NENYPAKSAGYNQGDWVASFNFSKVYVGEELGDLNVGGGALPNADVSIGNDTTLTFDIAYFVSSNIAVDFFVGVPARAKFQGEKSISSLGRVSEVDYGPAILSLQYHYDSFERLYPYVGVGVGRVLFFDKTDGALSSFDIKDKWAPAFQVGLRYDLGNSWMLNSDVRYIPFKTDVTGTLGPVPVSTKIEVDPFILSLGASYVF
The experiment can be described thus: whole-cell alkane uptake by GC and coupled AlkB oxidation, with and without alkL. Conditions: transport into E. coli; 15 min incubation for direct uptake; whole cells. The experiment is classed as cell-based.

`CCCCCCCC` [n-octane]: the “whole-cell bio-oxidation, GC-FID of products” value in experiment [1] is “Oxidised products of n-octane were detected in all host cells containing either pSTBFG or pSTBFGL”.
`CCCCCCCCCCCC` [n-dodecane]: the “whole-cell alkane uptake by GC and coupled AlkB oxidation, with and without alkL” value at AlkL is reported as “E.coli strains expressing alkL were also tested for a direct measurement of n-dodecane uptake”.
